From US8729264B2, “Agent for prevention and/or treatment of skin diseases” (Kyowa Hakko Kirin Co., Ltd., priority 2007, dated 2014) come the findings set out here.

The assay has as its system dinitrofluorobenzene-induced ear edema. Kind of assay: Suppressive action on dinitrofluorobenzene-induced ear edema reaction in mouse. The assay is classed as in vivo, BALB/c mice (printed BALE/c). The note with it: topical, test compound 1% (w/v) in acetone applied to front and back of auricle 1 hr before and 3 hr after induction, auricle thickness 24 hr after induction, female mice, read-out: ear edema suppressive rate (%). The method, then:
5-Week to 6-week old BALE/c mice (female, supplied by CHARLES RIVER LABORATORIES JAPAN, INC) were purchased and, after quarantine and habituation, those showing satisfactory body weight increase and free of abnormal appearance were used to start the test from 7 weeks of age. The animals were housed and bred in plastic cages (6 mice per cage) in a breeding chamber set at room temperature 19-25° C., humidity 30-70%, 12 hr illumination per day (7 a.m.-7 p.m.), with free access to a commercially available solid feed and water.
One day before the test, the abdomen was shaved, and a solution of dinitrofluorobenzene (manufactured by Nacalai Tesque) in acetone (manufactured by Wako Pure Chemical Industries, Ltd.) {concentration 0.5% [weight (w)/volume (v) %]} was applied to the shaved part of BALE/c mice by 100 μL for sensitization. On day 5 after sensitization, a dinitrofluorobenzene-acetone solution [concentration 0.2% (w/v %)] was applied to the front and the back of the auricle by 10 μL each (total 20 μL) to induce reaction. A test compound dissolved in acetone to the concentration of 1% (w/v %) was applied to the front and the back of the auricle 1 hr before and 3 hr after the induction of reaction each by 10 μL or 40 μL (total 20 μL or 80 μL). After the application, the applied part was air-dried by a dryer.
A group administered with the test compound by coating was taken as a test compound administration group, and a group administered with acetone (solvent) by coating instead of the test compound was taken as a solvent administration group. In addition, a group free of sensitization and induction of reaction and administered with acetone by coating instead of the test compound was taken as a normal group. The thickness of the auricle was measured immediately before induction of reaction and 24 hr after the induction with a dial thickness gauge (manufactured by OZAKI MFG. CO., LTD., G-1A), and the difference between them was taken as ear edema. The ear edema suppressive rate (%) was calculated according to the following formula.
`CS(=O)(=O)NC(=O)c1cnn2c(NCc3ccccc3)c(C(=O)N3CCC(c4ccccc4)CC3)cnc12` [a-1, N-[7-Benzylamino-6-(4-phenylpiperidine-1-carbonyl)pyrazolo[1,5-a]pyrimidine-3-carbonyl]methanesulfonamide]: the inhibition in vivo at 1 % is 20%.
With `CCS(=O)(=O)NC(=O)c1cnn2c(Nc3ccc(F)cc3C)c(C(=O)N3CCC(c4ccccc4)CC3)cnc12` [a-57, N-[7-(4-Fluoro-2-methylphenylamino)-6-(4-phenylpiperidine-1-carbonyl)pyrazolo[1,5-a]pyrimidine-3-carbonyl]ethanesulfonamide], the inhibition in vivo at 1 % came out at 35%.
Take `CCS(=O)(=O)NC(=O)c1cnn2c(Nc3cc(C)ccc3F)c(C(=O)N3CCC(c4ccccc4)CC3)cnc12` [a-59, N-[7-(2-Fluoro-5-methylphenylamino)-6-(4-phenylpiperidine-1-carbonyl)pyrazolo[1,5-a]pyrimidine-3-carbonyl]ethanesulfonamide]: the inhibition in vivo at 1 % is 6%.
As for `CCS(=O)(=O)NC(=O)c1cnn2c(Nc3cc(C)ccc3F)c(C(=O)N3CCC(c4ccc(F)cc4)CC3)cnc12` [a-81, N-{7-(2-Fluoro-5-methylphenylamino)-6-[4-(4-fluorophenyl)piperidine-1-carbonyl]pyrazolo[1,5-a]pyrimidine-3-carbonyl}ethanesulfonamide], the inhibition in vivo at 1 % turned out to be 25%.
As to `CCS(=O)(=O)NC(=O)c1cnn2c(Nc3ccc(F)cc3C)c(C(=O)N3CCC(c4ccc(F)cc4)CC3)cnc12` [a-84, N-{7-(4-Fluoro-2-methylphenylamino)-6-[4-(4-fluorophenyl)piperidine-1-carbonyl]pyrazolo[1,5-a]pyrimidine-3-carbonyl}ethanesulfonamide], the inhibition in vivo at 1 % came out at 25%.
Turning to `CS(=O)(=O)NC(=O)c1cnn2c(NCc3ccccc3)c(C(=O)N3CCC(F)(c4ccccc4)CC3)cnc12` [a-96, N-[7-Benzylamino-6-(4-fluoro-4-phenylpiperidine-1-carbonyl)pyrazolo[1,5-a]pyrimidine-3-carbonyl]methanesulfonamide], the inhibition in vivo at 1 % worked out at 10%.
As for `O=C(NS(=O)(=O)C1CC1)c1cnn2c(NCc3ccccc3)c(C(=O)N3CCC4(CC3)COc3ccccc34)cnc12` [a-126, N-[7-Benzylamino-6-(2H-spiro[benzofuran-3,4′-piperidine]-1′-ylcarbonyl)pyrazolo[1,5-a]pyrimidine-3-carbonyl]cyclopropanesulfonamide], the inhibition in vivo at 1 % was found to be 10%.
To `CCS(=O)(=O)NC(=O)c1cnn2c(Nc3cc(C)ccc3C)c(C(=O)N3CCC4(CC3)COc3cc(F)ccc34)cnc12` [a-137, N-[7-(2,5-Dimethylphenylamino)-6-(6-fluoro-2H-spiro[benzofuran-3,4′-piperidine]-1′-ylcarbonyl)pyrazolo[1,5-a]pyrimidine-3-carbonyl]ethanesulfonamide] belongs 5%.
